Data set [1] has as its target T1, human calcium-sensing receptor (CaSR) (Homo sapiens, UniProt P41180).
T1 construct: host or cells: HEK293
T1 sequence (P41180 20-1078): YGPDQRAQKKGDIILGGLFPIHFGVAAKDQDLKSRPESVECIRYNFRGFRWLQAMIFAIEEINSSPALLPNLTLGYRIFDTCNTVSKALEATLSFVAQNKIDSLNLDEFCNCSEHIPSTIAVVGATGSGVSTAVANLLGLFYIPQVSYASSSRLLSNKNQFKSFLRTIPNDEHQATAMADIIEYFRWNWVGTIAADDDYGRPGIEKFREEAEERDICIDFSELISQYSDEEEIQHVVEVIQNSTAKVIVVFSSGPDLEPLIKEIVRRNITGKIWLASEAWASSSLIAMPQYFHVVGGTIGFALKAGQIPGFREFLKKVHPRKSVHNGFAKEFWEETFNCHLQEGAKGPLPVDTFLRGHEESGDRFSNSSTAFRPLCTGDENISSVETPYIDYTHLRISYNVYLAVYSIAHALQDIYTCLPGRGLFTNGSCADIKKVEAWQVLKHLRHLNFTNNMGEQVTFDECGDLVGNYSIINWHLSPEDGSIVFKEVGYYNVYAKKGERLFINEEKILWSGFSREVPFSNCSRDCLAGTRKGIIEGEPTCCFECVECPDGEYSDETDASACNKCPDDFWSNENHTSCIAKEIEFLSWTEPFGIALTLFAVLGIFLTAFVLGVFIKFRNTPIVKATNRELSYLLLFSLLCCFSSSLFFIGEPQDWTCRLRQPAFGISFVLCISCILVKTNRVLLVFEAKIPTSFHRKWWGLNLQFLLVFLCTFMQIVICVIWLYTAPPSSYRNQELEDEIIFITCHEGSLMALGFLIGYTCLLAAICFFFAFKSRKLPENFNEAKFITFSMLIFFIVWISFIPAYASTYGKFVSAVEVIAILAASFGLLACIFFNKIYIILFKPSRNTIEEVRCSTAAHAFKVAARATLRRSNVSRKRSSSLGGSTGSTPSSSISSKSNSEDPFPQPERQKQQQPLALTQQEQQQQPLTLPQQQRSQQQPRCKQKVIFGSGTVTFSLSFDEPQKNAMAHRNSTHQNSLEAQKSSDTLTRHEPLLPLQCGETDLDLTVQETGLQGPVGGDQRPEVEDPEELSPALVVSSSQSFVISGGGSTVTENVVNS
Briefly: Agonist activity on human calcium-sensing receptor (IP-One HTRF in stably transfected HEK293/CaSR cells). The format is cell-based. On the procedure: 3.1.1 Objective: The test example is intended to measure the agonist activity of compounds 1-38 on the human calcium-sensing receptor (CaSR).
Stably transfected HEK293/CaSR cells (source: Pharmaron) were cultured in a complete medium (composition: DMEM, high glucose+10% FBS+2 mM GlutaMAX+1× Penicillin-Streptomycin+200 μg/mL Hygromycin B) and incubated at 37° C./5% CO2 till 70%-90% cell confluence. The cells were digested with TrypLE, inoculated into 384-well cell culture plates, and cultured overnight at 37° C./5% CO2. After buffer exchange, stimulation buffer (HEPES 10 mM, MgCl2 0.5 mM, KCl 4.2 mM, NaCl 146 mM, glucose 5.5 mM, LiCl 50 mM, CaCl2 1.2 mM) and various concentrations of the test example compounds were added and incubated at 37° C. for 60 min. Production of IP-One in cells was detected according to the procedures in the Cisbio IP-One Tb kit instructions. The EC50 values of various test example compounds in influencing human calcium-sensing receptor was calculated by software after the raw data of the example compounds were collected, so as to evaluate the agonist activity of the example compounds on human calcium-sensing receptor.
HTRF signal was read by an EnVision detector with an excitation wavelength of 320 nm and emission wavelengths of 620 nm and 665 nm. The signal ratio (665 nm/620 nm×10,000) was calculated and fitted non-linearly to the sample concentration in GraphPad Prism 6 using a four-parameter equation to give EC50 values of the test example compounds 1-38.
For orientation: TR-FRET usually uses a lanthanide donor and a delayed reading to cut background.

The test system of data set [2] is rat peritoneal mast cells. Briefly: In vitro histamine release in rat peritoneal mast cells (histamine ELISA). The note with it: test compound final concentration 10 μM, 15 min at 37° C., relative to PBS buffer (1.00). The format is cell-based. On the procedure: To evaluate the in vitro histamine release levels induced by some of the test example compounds, rat peritoneal mast cells were collected by lavaging rat peritoneum with a lavage buffer (cold HBSS+25 mM HEPES containing heparin 5 U/mL, pH 7.4). After collection, the cells were centrifuged, and the lavage buffer was discarded. The cells were resuspended and washed twice with a stimulation buffer (HBSS+25 mM HEPES+1 mM CaCl2), pH 7.4). The cells were plated at a density of 10^5 cell/well (200 μL/well) and incubated at 37° C. for 15 min with positive control compound 48/80 (final concentration: 4 μg/mL), test example compounds (final concentration: 10 μM) or vehicle control. The cells were centrifuged, and cell supernatant was collected and tested for histamine concentration according to LDN Histamine ELISA kit (BAE-1000) instructions.
A general note: ELISA stands for enzyme-linked immunosorbent assay.

[3] abbreviates: HEK293/CaSR cells, IP-One production, 60 min at 37° C., CaCl2 1.2 mM, read-out: EC50 for calcium-sensing receptor.

Like-named read-outs stand apart in the source and are kept apart here. Square brackets hold non-standard residues; d marks the D form. Peptide text beside a SMILES is read from it. * marks the point of attachment. dPhe(4-NO2) = N[C@H](Cc1ccc([N+](=O)[O-])cc1)C(=O)O; dPhe(4-Me) = Cc1ccc(C[C@@H](N)C(=O)O)cc1; Cys(free,S-linked) = N[C@@H](CS*)C(=O)O; dPhe(2-Cl) = N[C@H](Cc1ccccc1Cl)C(=O)O; d2Nal = N[C@H](Cc1ccc2ccccc2c1)C(=O)O; dChg = N[C@@H](C(=O)O)C1CCCCC1; dPhg = N[C@@H](C(=O)O)c1ccccc1; dTle = CC(C)(C)[C@@H](N)C(=O)O

In general, EC50 refers to the midpoint of the concentration-response curve.

For `CC(=O)N[C@H](CSSC[C@H](N)C(=O)O)C(=O)N[C@@H](C(=O)N[C@H](CCCNC(=N)N)C(=O)N[C@H](CCCNC(=N)N)C(=O)N[C@H](CCCNC(=N)N)C(=O)N[C@H](C)C(=O)N[C@H](CCCNC(=N)N)C(N)=O)c1ccccc1` [Compound 1, Ac-c(C)-(D-Phg)-r-r-r-a-r-NH2] (Ac-[dC](Cys(free,S-linked))[dPhg][dR][dR][dR][dA][dR]-NH2), in data set [1] (setting [3]), the half-maximal effective concentration (EC50) stood at 15.7 µM. Moreover, the “Relative fold of histamine release in vitro” value (“Relative fold” for short) in data set [2] was 1.50.
Consider `CC(=O)N[C@H](CSSC[C@H](N)C(=O)O)C(=O)N[C@H](Cc1ccccc1Cl)C(=O)N[C@H](CCCNC(=N)N)C(=O)N[C@H](CCCNC(=N)N)C(=O)N[C@H](CCCNC(=N)N)C(=O)N[C@H](C)C(=O)N[C@H](CCCNC(=N)N)C(N)=O` [Compound 2, Ac-c(C)-[D-Phe(2-Cl)]-r-r-r-a-r-NH2] (Ac-[dC](Cys(free,S-linked))[dPhe(2-Cl)][dR][dR][dR][dA][dR]-NH2), for which the EC50 in data set [1] (setting [3]) came to 6.76 µM. The “Relative fold” value in data set [2] came to 4.96.
`CC(=O)N[C@H](CSSC[C@H](N)C(=O)O)C(=O)N[C@H](Cc1ccc(C)cc1)C(=O)N[C@H](CCCNC(=N)N)C(=O)N[C@H](CCCNC(=N)N)C(=O)N[C@H](CCCNC(=N)N)C(=O)N[C@H](C)C(=O)N[C@H](CCCNC(=N)N)C(N)=O` [Compound 3, Ac-c(C)-[D-Phe(4-CH3)]-r-r-r-a-r-NH2] (Ac-[dC](Cys(free,S-linked))[dPhe(4-Me)][dR][dR][dR][dA][dR]-NH2): the EC50 in data set [1] (setting [3]) was 15.3 µM.
Consider `CC(=O)N[C@H](CSSC[C@H](N)C(=O)O)C(=O)N[C@H](Cc1ccc(O)cc1)C(=O)N[C@H](CCCNC(=N)N)C(=O)N[C@H](CCCNC(=N)N)C(=O)N[C@H](CCCNC(=N)N)C(=O)N[C@H](C)C(=O)N[C@H](CCCNC(=N)N)C(N)=O` [Compound 4, Ac-c(C)-(D-Tyr)-r-r-r-a-r-NH2] (Ac-[dC](Cys(free,S-linked))[dY][dR][dR][dR][dA][dR]-NH2), for which, in data set [1] (setting [3]), the EC50 was 6.92 µM. The “Relative fold” value in data set [2] came to 3.94.
With `CC(=O)N[C@H](CSSC[C@H](N)C(=O)O)C(=O)N[C@H](Cc1c[nH]c2ccccc12)C(=O)N[C@H](CCCNC(=N)N)C(=O)N[C@H](CCCNC(=N)N)C(=O)N[C@H](CCCNC(=N)N)C(=O)N[C@H](C)C(=O)N[C@H](CCCNC(=N)N)C(N)=O` [Compound 5, Ac-c(C)-(D-Trp)-r-r-r-a-r-NH2] (Ac-[dC](Cys(free,S-linked))[dW][dR][dR][dR][dA][dR]-NH2), the EC50 in data set [1] (setting [3]) came to 1.14 µM. Besides, the “Relative fold” value in data set [2] is recorded as 4.13.
The like results for `CC(=O)N[C@H](CSSC[C@H](N)C(=O)O)C(=O)N[C@H](CO)C(=O)N[C@H](CCCNC(=N)N)C(=O)N[C@H](CCCNC(=N)N)C(=O)N[C@H](CCCNC(=N)N)C(=O)N[C@H](CO)C(=O)N[C@H](CCCNC(=N)N)C(N)=O` [Compound 6, Ac-c(C)-s-r-r-r-s-r-NH2] (Ac-[dC](Cys(free,S-linked))[dS][dR][dR][dR][dS][dR]-NH2) were, in that order, 11.6 µM and 1.65.
For the compound `CC(=O)N[C@H](CSSC[C@H](N)C(=O)O)C(=O)N[C@H](Cc1c[nH]c2ccccc12)C(=O)N[C@H](CCCNC(=N)N)C(=O)N[C@H](CCCNC(=N)N)C(=O)N[C@H](CCCNC(=N)N)C(=O)NCC(=O)N[C@H](CCCNC(=N)N)C(N)=O` [Compound 9, Ac-c(C)-w-r-r-r-G-r-NH2] (Ac-[dC](Cys(free,S-linked))[dW][dR][dR][dR]G[dR]-NH2), in data set [1] (setting [3]), the half-maximal effective concentration (EC50) was found to be 3.16 µM.
As for `CC(=O)N[C@H](CSSC[C@H](N)C(=O)O)C(=O)N[C@H](CCCNC(=N)N)C(=O)N[C@H](CCCNC(=N)N)C(=O)N[C@H](Cc1ccc([N+](=O)[O-])cc1)C(=O)N[C@H](CCCNC(=N)N)C(=O)N[C@H](C)C(=O)N[C@H](CCCNC(=N)N)C(N)=O` [Compound 14, Ac-c(C)-r-r-[D-Phe(4-NO2)]-r-a-r-NH2] (Ac-[dC](Cys(free,S-linked))[dR][dR][dPhe(4-NO2)][dR][dA][dR]-NH2), in data set [1] (setting [3]), the EC50 was determined as 4.33 µM.
Still for that read-out and setting: to `CC(=O)N[C@H](CSSC[C@H](N)C(=O)O)C(=O)N[C@H](CCCNC(=N)N)C(=O)N[C@H](CCCNC(=N)N)C(=O)N[C@H](Cc1ccc2ccccc2c1)C(=O)N[C@H](CCCNC(=N)N)C(=O)N[C@H](C)C(=O)N[C@H](CCCNC(=N)N)C(N)=O` [Compound 15, Ac-c(C)-r-r-(D-2-NaI)-r-a-r-NH2] (Ac-[dC](Cys(free,S-linked))[dR][dR][d2Nal][dR][dA][dR]-NH2) belongs 5.59 µM; to `CC(=O)N[C@H](CSSC[C@H](N)C(=O)O)C(=O)N[C@H](CCCNC(=N)N)C(=O)N[C@H](CCCNC(=N)N)C(=O)N[C@H](CCC(N)=O)C(=O)N[C@H](CCCNC(=N)N)C(=O)NCC(=O)N[C@H](CCCNC(=N)N)C(N)=O` [Compound 23, Ac-c(C)-r-r-q-r-G-r-NH2] (Ac-[dC](Cys(free,S-linked))[dR][dR][dQ][dR]G[dR]-NH2), 30.4 µM.
Still for that read-out and setting: the value for `CC(=O)N[C@H](CSSC[C@H](N)C(=O)O)C(=O)N[C@H](CCCNC(=N)N)C(=O)N[C@H](CCCNC(=N)N)C(=O)N[C@H](Cc1c[nH]cn1)C(=O)N[C@H](CCCNC(=N)N)C(=O)NCC(=O)N[C@H](CCCNC(=N)N)C(N)=O` [Compound 28, Ac-c(C)-r-r-h-r-G-r-NH2] (Ac-[dC](Cys(free,S-linked))[dR][dR][dH][dR]G[dR]-NH2) was 21.5 µM; that for `CC(=O)N[C@H](CSSC[C@H](N)C(=O)O)C(=O)N[C@H](CCCNC(=N)N)C(=O)N[C@H](CCCNC(=N)N)C(=O)N[C@@H](C(=O)N[C@H](CCCNC(=N)N)C(=O)NCC(=O)N[C@H](CCCNC(=N)N)C(N)=O)C1CCCCC1` [Compound 36, Ac-c(C)-r-r-(D-Chg)-r-G-r-NH2] (Ac-[dC](Cys(free,S-linked))[dR][dR][dChg][dR]G[dR]-NH2) was 17.9 µM.
As to `CC(=O)N[C@H](CSSC[C@H](N)C(=O)O)C(=O)N[C@H](CCCNC(=N)N)C(=O)N[C@H](CCCNC(=N)N)C(=O)N[C@@H](C(=O)N[C@H](CCCNC(=N)N)C(=O)NCC(=O)N[C@H](CCCNC(=N)N)C(N)=O)C(C)(C)C` [Compound 38, Ac-c(C)-r-r-(D-Tle)-r-G-r-NH2] (Ac-[dC](Cys(free,S-linked))[dR][dR][dTle][dR]G[dR]-NH2), the EC50 in data set [1] (setting [3]) was 18.7 µM.
`CC(=O)N[C@H](CSSC[C@H](N)C(=O)O)C(=O)N[C@H](CCCNC(=N)N)C(=O)N[C@H](CCCNC(=N)N)C(=O)N[C@H](C)C(=O)N[C@H](CCCNC(=N)N)C(=O)N[C@H](C)C(=O)N[C@H](CCCNC(=N)N)C(N)=O` [Etelcalcetide analogue, Ac-c(C)-r-r-a-r-a-r-NH2, reference compound] (Ac-[dC](Cys(free,S-linked))[dR][dR][dA][dR][dA][dR]-NH2): the EC50 in data set [1] worked out at 6.74 µM.

For the origin of these results see patent US20230041996A1, “CALCIUM-SENSING RECEPTOR AGONIST COMPOUND AND APPLICATION THEREOF” (BEIJING TUO JIE BIOPHARMACEUTICAL CO. LTD., priority 2019, published 2023).
